Assay results: the NIST ThermoML archive (doi:10.1016/j.jct.2017.08.002)

Experiment: mn = molality of the nth substance listed, in mol/kg
Details: 101.33 kPa, Liquid; for speed of sound: Frequency=2 MHz, Linear variable-path acoustic interferometer; for mass density: Pycnometric method

O=C([O-])c1ccccc1O.[Na+] [sodium salicylate] + O
Details | mass density, 288.15 K [kg/m3] | mass density, 298.15 K [kg/m3] | mass density, 308.15 K [kg/m3] | speed of sound, 288.15 K [m/s] | speed of sound, 298.15 K [m/s] | speed of sound, 308.15 K [m/s]
m1 = 0.01 | – | – | 994.69 | – | – | 1520.8
m1 = 0.0101 | 999.8 | 997.73 | – | 1466.8 | 1497.6 | –
m1 = 0.0221 | 1000.62 | 998.51 | 995.46 | 1467.9 | 1498.8 | 1521.9
m1 = 0.0307 | 1001.19 | 999.07 | – | 1468.7 | 1499.6 | –
m1 = 0.0333 | – | – | 996.16 | – | – | 1523
m1 = 0.04 | – | – | 996.59 | – | – | 1523.6
m1 = 0.0448 | 1002.19 | 1000 | – | 1470 | 1501 | –
m1 = 0.0451 | – | – | 996.9 | – | – | 1524.2
m1 = 0.0501 | 1002.51 | 1000.34 | 997.24 | 1470.5 | 1501.5 | 1524.6
m1 = 0.0546 | 1002.85 | 1000.67 | – | 1470.8 | 1501.9 | –
m1 = 0.0572 | – | – | 997.65 | – | – | 1525.3
m1 = 0.06 | 1003.2 | 1001.01 | – | 1471.4 | 1502.4 | –
m1 = 0.0667 | 1003.66 | – | – | 1472 | – | –
m1 = 0.0702 | – | – | 998.5 | – | – | 1526.5
m1 = 0.0704 | 1003.92 | 1001.66 | – | 1472.3 | 1503.5 | –
m1 = 0.0802 | 1004.55 | 1002.35 | 999.1 | 1473.2 | 1504.4 | 1527.5
m1 = 0.0848 | 1004.87 | 1002.59 | – | 1473.6 | 1504.9 | –
m1 = 0.0857 | – | – | 999.47 | – | – | 1528
m1 = 0.0906 | 1005.23 | – | 999.8 | 1474.2 | – | 1528.4
m1 = 0.0907 | – | 1002.99 | – | – | 1505.4 | –
m1 = 0.0951 | – | 1003.26 | 1000.07 | – | 1505.8 | 1528.9
m1 = 0.1018 | – | 1003.68 | – | – | 1506.5 | –
m1 = 0.1019 | 1006 | – | – | 1475.2 | – | –
m1 = 0.1023 | – | – | 1000.5 | – | – | 1529.6
